From patent US20020137929A1, “1 - (3-heterocyclylphenyl) isothiourea, -isourea, -guanidine and -amidine herbicidal agents” (Intellectual Property Department, BASF Aktiengesellschaft, priority 1998, published 2002)

Legend:
[1] = test system: MOOVA (Monochoria); test: Postemergence weed control under flooded paddy conditions; type: in vivo, Monochoria vaginalis; details: postemergence weeds, rated 3 to 4 weeks after treatment
Method in brief: (§1)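 With weeds 3 to 5 cm tall and rice at the 1.5 to 2.5 leaf stage, containers were flooded and water held 1.5 to 3 cm above soil. Compounds in 50/50 v/v aqueous/acetone went into the flood water at about 0.0313 to 0.500 kg/ha a.i. Effects were visually rated 0–9 against controls after three to four weeks in the greenhouse.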

[2] = test system: ORYSAT (Rice, Tebonnet); test: Rice tolerance to post-transplant applications, flooded paddy conditions (Table IV); type: in vivo, Oryza sativa, (L.) Tebonnet
Method in brief: as §1

[3] = test system: CYPIR (Rice Flatsedge); test: Preemergence weed control under flooded paddy conditions; type: in vivo, Cyperus iria; details: rated 3-4 weeks after treatment
Method in brief: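 Seeds or propagules sown in silt loam kept flooded 1.5-3 cm; compounds in 50/50 acetone/water pipetted into flood water at about 0.0313 to 0.500 kg/ha. Greenhouse; visual 0-9 rating versus untreated control 3-4 weeks after treatment.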

[4] = test system: ORYSAT (Rice, Tebonnet); test: Rice tolerance to post-transplant applications, flooded paddy conditions (Table III); type: in vivo, Oryza sativa, (L.) Tebonnet
Method in brief: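 Two ten-day-old Tebonnet seedlings transplanted into flooded silt loam (water 1.5 to 3 cm above soil); three days later the water surface was treated with compound in aqueous/acetone 50/50 at about 0.0313 to 0.500 kg/ha. Visual 0-9 injury rating versus control after three to four weeks in greenhouse.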

[5] = test system: AMBEL (Ragweed, Common); test: Preemergence herbicidal evaluation; type: in vivo, Ambrosia artemisifolia; details: rated 4-5 weeks after treatment; for AMBEL rating: preemergence, 0-9 scale
Method in brief: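 Seeds were planted in potting soil in cups, then sprayed preemergence with the test compound in aqueous acetone at about 0.0156 to 0.500 kg per hectare. Cups were kept under greenhouse conditions and visually rated 4–5 weeks after treatment on a 0–9 scale against an untreated control.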

[6] = Rate 0.0313 kg/ha, flooded paddy, post-transplant rice, rated 3 to 4 weeks after treatment
[7] = Rate 0.0625 kg/ha, flooded paddy, post-transplant rice, rated 3 to 4 weeks after treatment
[8] = Rate 0.1250 kg/ha, flooded paddy, post-transplant rice, rated 3 to 4 weeks after treatment
[9] = Rate 0.2500 kg/ha, flooded paddy, post-transplant rice, rated 3 to 4 weeks after treatment
[10] = 0.0313 kg/ha, post-transplant rice, flooded paddy, rated 3-4 weeks after treatment
[11] = 0.0625 kg/ha, post-transplant rice, flooded paddy, rated 3-4 weeks after treatment
[12] = 0.1250 kg/ha, post-transplant rice, flooded paddy, rated 3-4 weeks after treatment
[13] = 0.2500 kg/ha, post-transplant rice, flooded paddy, rated 3-4 weeks after treatment

SMILES	Herbicidal rating MOOVA ([1]; Rate 0.0313 kg/ha)	Herbicidal rating MOOVA ([1]; Rate 0.0625 kg/ha)	Herbicidal rating MOOVA ([1]; Rate 0.1250 kg/ha)	Herbicidal rating MOOVA ([1]; Rate 0.2500 kg/ha)	CYPIR herbicidal effect rating ([3]; 0.0313 kg/ha)	CYPIR herbicidal effect rating ([3]; 0.0625 kg/ha)	CYPIR herbicidal effect rating ([3]; 0.1250 kg/ha)	CYPIR herbicidal effect rating ([3]; 0.2500 kg/ha)	Herbicidal rating ORYSAT (rice tolerance) [2, 6]	Herbicidal rating ORYSAT (rice tolerance) [2, 7]	Herbicidal rating ORYSAT (rice tolerance) [2, 8]	Herbicidal rating ORYSAT (rice tolerance) [2, 9]	ORYSAT herbicidal effect rating (rice tolerance) [4, 10]	ORYSAT herbicidal effect rating (rice tolerance) [4, 11]	ORYSAT herbicidal effect rating (rice tolerance) [4, 12]	ORYSAT herbicidal effect rating (rice tolerance) [4, 13]	AMBEL rating ([5]; 0.0313 kg/ha)	AMBEL rating ([5]; 0.0625 kg/ha)	AMBEL rating ([5]; 0.1250 kg/ha)	AMBEL rating ([5]; 0.2500 kg/ha)	further results
CN1C(=O)C(CC(=O)O)SC1=Nc1cc(-n2c(=O)cc(C(F)(F)F)n(C)c2=O)c(F)cc1Cl (stereo not drawn) [Compound 63, 2-{{2-Chloro-5-[3,6-dihydro-3-methyl-2,6-dioxo-4-(trifluoromethyl)-1(2H)-pyrimidinyl]-4-fluoro-phenyl}imino}-3-methyl-4-oxo-5-thiazolidineacetic acid]	9.0	9.0	9.0	9.0	2.0	6.0	7.0	7.0													Herbicidal rating ORYSAT (rice tolerance) ([2]; in vivo): 3.0; ORYSAT herbicidal effect rating (rice tolerance) ([4]; in vivo): 3.0; Preemergence herbicidal rating AMBEL ([5]; rate 0.0156 kg/ha): 0.0; Preemergence herbicidal rating AMBEL ([5]; rate 0.0313 kg/ha): 0.0; Preemergence herbicidal rating AMBEL ([5]; rate 0.0625 kg/ha): 6.0; Preemergence herbicidal rating AMBEL ([5]; rate 0.1250 kg/ha): 9.0; Preemergence herbicidal rating AMBEL ([5]; rate 0.2500 kg/ha): 9.0
C=CCN1C(=O)C(CC(=O)OCCF)SC1=Nc1cc(-n2c(=O)cc(C(F)(F)F)n(C)c2=O)c(F)cc1Cl (stereo not drawn) [Compound 86, 2-Fluoroethyl 3-allyl-2-{{2-chloro-5-[3,6-dihydro-3-methyl-2,6-dioxo-4-(trifluoromethyl)-1(2H)-pyrimidinyl]-4-fluorophenyl}imino}-4-oxo-5-thiazolidineacetate]	9.0	9.0	9.0	9.0	3.0	7.0	8.0	9.0	3.0	4.0	4.0	5.0	3.0	4.0	4.0	5.0	0.0	6.0	9.0	9.0	AMBEL rating ([5]; 0.0156 kg/ha): 0.0; AMBEL rating ([5]; 0.5000 kg/ha): 9.0
CN1C(=O)C(CC(=O)OCCF)SC1=Nc1cc(-n2c(=O)cc(C(F)(F)F)n(C)c2=O)c(F)cc1Cl (stereo not drawn) [Compound 93, 2-Fluoroethyl 2-{{2-chloro-5-[3,6-dihydro-3-methyl-2,6-dioxo-4-(trifluoromethyl)-1(2H)-pyrimidinyl]-4-fluorophenyl}imino}-3-methyl-4-oxo-5-thiazolidineacetate]	9.0	9.0	9.0	9.0	0.0	0.0	0.0	0.0	0.0	0.0	0.0	3.0	0.0	0.0	0.0	3.0	0.0	0.0	9.0	9.0	
